Test results taken from patent US12083101B2, “Biaryl derivatives as YAP/TAZ-TEAD protein-protein interaction inhibitors” (Novartis AG, priority 2020, dated 2024).
Where a name gives a salt, the structure may show the parent alone.

Target: Avi-humanTEAD4 217-434 / Cy5 labeled humanYAP 60-100 (Homo sapiens (Human), UniProt Q15561)
Assay: TR-FRET YAP-TEAD4 in-vitro biochemical assay
Assay type: binding
Conditions: 1 nM Avi-humanTEAD4 217-434, 20 nM Cy5-humanYAP 60-100, 1 h room temperature
Experimental: N-terminus Cy5 labeled humanYAP^60-100 (20 nM) was then added to this preparation. Compounds were dissolved at 10 mM in 100% DMSO and serial dilutions were made in 100% DMSO. The diluted compound solutions were incubated in white 384-well plates (Greiner Bio-One) for 1 h at room temperature with the above described mix. The final DMSO concentration present in the assay was 1%. […] The IC50 values were estimated by fitting the data by nonlinear fit regression (GraphPad Prism).

Chain of Avi-humanTEAD4 217-434 / Cy5 labeled humanYAP 60-100 (Q15561 217-434): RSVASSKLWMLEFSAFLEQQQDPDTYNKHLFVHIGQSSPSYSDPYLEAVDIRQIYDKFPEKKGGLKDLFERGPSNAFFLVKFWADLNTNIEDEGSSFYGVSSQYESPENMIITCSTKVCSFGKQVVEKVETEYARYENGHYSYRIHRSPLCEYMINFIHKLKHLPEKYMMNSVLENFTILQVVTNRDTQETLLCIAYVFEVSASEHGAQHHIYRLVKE

IC50 | Compound
376 nM | Cc1cccc(C(N)=O)c1-c1c(Cl)ccc2c1C[C@@](CN)(c1ccccc1)O2 (atropisomer, axis not shown) [Example 6, 2-((2S,4R)-2-(aminomethyl)-5-chloro-2-phenyl-2,3-dihydrobenzofuran-4-yl)-3-methylbenzamide]
65 nM | NC[C@@]1(c2ccccc2)Cc2c(ccc(Cl)c2-c2c(Cl)cccc2C(N)=O)O1 (atropisomer, axis not shown) [Example 7, 2-((2S,4S)-2-(aminomethyl)-5-chloro-2-phenyl-2,3-dihydrobenzofuran-4-yl)-3-chlorobenzamide trifluoroacetate salt]
4 nM | NC[C@@]1(c2ccccc2)Cc2c(ccc(Cl)c2-c2c(C(N)=O)ccc(Cl)c2F)O1 (atropisomer, axis not shown) [Example 8, 2-((2S,4S)-2-(aminomethyl)-5-chloro-2-phenyl-2,3-dihydrobenzofuran-4-yl)-4-chloro-3-fluorobenzamide]
4 nM | NC[C@@]1(c2ccccc2)Cc2c(ccc(Cl)c2-c2c(C(N)=O)ccc(F)c2F)O1 (atropisomer, axis not shown) [Example 9, 2-((2S,4S)-2-(aminomethyl)-5-chloro-2-phenyl-2,3-dihydrobenzofuran-4-yl)-3,4-difluorobenzamide]
6 nM | NC[C@@]1(c2ccccc2)Cc2c(ccc(Cl)c2-c2c(C(N)=O)ccc(OCC(=O)O)c2F)O1 (atropisomer, axis not shown) [Example 16, 2-(3-((2S,4S)-2-(aminomethyl)-5-chloro-2-phenyl-2,3-dihydrobenzofuran-4-yl)-4-carbamoyl-2-fluorophenoxy)acetic acid trifluoroacetate salt]
13 nM | CC(=O)N1CCO[C@@H](COc2ccc(C(N)=O)c(-c3c(Cl)ccc4c3C[C@@](CN)(c3ccccc3)O4)c2F)C1 (atropisomer, axis not shown) [Example 17, 4-(((R)-4-acetylmorpholin-2-yl)methoxy)-2-((2S,4S)-2-(aminomethyl)-5-chloro-2-phenyl-2,3-dihydrobenzofuran-4-yl)-3-fluorobenzamide]
3 nM | NC[C@@]1(c2ccccc2)Cc2c(ccc(Cl)c2-c2c(C(N)=O)cnc(OC(F)F)c2F)O1 (atropisomer, axis not shown) [Example 19, 4-((2S,4S)-2-(Aminomethyl)-5-chloro-2-phenyl-2,3-dihydrobenzofuran-4-yl)-6-(difluoromethoxy)-5-fluoronicotinamide]
9 nM | COc1ccc(C(=O)NC2CC2)c(-c2c(Cl)ccc3c2C[C@@](CN)(c2ccccc2)O3)c1F (atropisomer, axis not shown) [Example 23, 2-((2S,4S)-2-(aminomethyl)-5-chloro-2-phenyl-2,3-dihydrobenzofuran-4-yl)-N-cyclopropyl-3-fluoro-4-methoxybenzamide]
6 nM | Cn1nccc1NC(=O)c1ccc(F)c(F)c1-c1c(Cl)ccc2c1C[C@@](CN)(c1ccccc1)O2 (atropisomer, axis not shown) [Example 24, 2-((2S,4S)-2-(aminomethyl)-5-chloro-2-phenyl-2,3-dihydrobenzofuran-4-yl)-3,4-difluoro-N-(1-methyl-1H-pyrazol-5-yl)benzamide]
10 nM | NC[C@@]1(c2ccccc2)Cc2c(cc(F)c(Cl)c2-c2c(C(N)=O)ccc(OC(F)(F)CO)c2F)O1 (atropisomer, axis not shown) [Example 36, 2-((2S,4S)-2-(aminomethyl)-5-chloro-6-fluoro-2-phenyl-2,3-dihydrobenzofuran-4-yl)-4-(1,1-difluoro-2-hydroxyethoxy)-3-fluorobenzamide]
42 nM | CS(=O)(=O)COc1ccc(C(N)=O)c(-c2c(Cl)c(F)cc3c2C[C@@](CN)(c2ccccc2)O3)c1F (atropisomer, axis not shown) [Example 40, 2-((2S,4S)-2-(aminomethyl)-5-chloro-6-fluoro-2-phenyl-2,3-dihydrobenzofuran-4-yl)-3-fluoro-4-((methylsulfonyl)methoxy)benzamide]
89 nM | NC[C@@]1(c2ccccc2)Cc2c(cc(F)c(Cl)c2-c2c(C(N)=O)ccc(OCCC(F)F)c2F)O1 (atropisomer, axis not shown) [Example 41, 2-((2S,4S)-2-(aminomethyl)-5-chloro-6-fluoro-2-phenyl-2,3-dihydrobenzofuran-4-yl)-4-(3,3-difluoropropoxy)-3-fluorobenzamide]
10 nM | CNC(=O)c1cnc(OCCO)c(F)c1-c1c(Cl)c(F)cc2c1C[C@@](CN)(c1ccccc1)O2 (atropisomer, axis not shown) [Example 45, 4-((2S,4S)-2-(Aminomethyl)-5-chloro-6-fluoro-2-phenyl-2,3-dihydrobenzofuran-4-yl)-5-fluoro-6-(2-hydroxyethoxy)-N-methylnicotinamide]
3 nM | CNC[C@@]1(c2ccccc2)Cc2c(cc(F)c(Cl)c2-c2c(C(N)=O)ccc(OC)c2F)O1 (atropisomer, axis not shown) [Example 46, 2-((2S,4S)-5-Chloro-6-fluoro-2-((methylamino)methyl)-2-phenyl-2,3-dihydrobenzofuran-4-yl)-3-fluoro-4-methoxybenzamide]
5 nM | CNC[C@@]1(c2ccccc2)Cc2c(cc(F)c(Cl)c2-c2c(C(N)=O)cnc(OCCO)c2F)O1 (atropisomer, axis not shown) [Example 49, 4-((2S,4S)-5-Chloro-6-fluoro-2-((methylamino)methyl)-2-phenyl-2,3-dihydrobenzofuran-4-yl)-5-fluoro-6-(2-hydroxyethoxy)nicotinamide]
30 nM | NC(=O)c1ccc(OC(F)F)c(F)c1-c1c(Cl)c(F)cc2c1C[C@@](CNCC1CC1)(c1ccccc1)O2 (atropisomer, axis not shown) [Example 50, 2-((2S,4S)-5-Chloro-2-(((cyclopropylmethyl)amino)methyl)-6-fluoro-2-phenyl-2,3-dihydrobenzofuran-4-yl)-4-(difluoromethoxy)-3-fluorobenzamide]
6 nM | CNC[C@@]1(c2ccccc2)Cc2c(cc(F)c(Cl)c2-c2c(C(=O)NC)cnc(OCCO)c2F)O1 (atropisomer, axis not shown) [Example 53, 4-((2S,4S)-5-chloro-6-fluoro-2-((methylamino)methyl)-2-phenyl-2,3-dihydrobenzofuran-4-yl)-5-fluoro-6-(2-hydroxyethoxy)-N-methylnicotinamide]
20 nM | CN(C)C(=O)CN1CCC(NC[C@@]2(c3ccccc3)Cc3c(cc(F)c(Cl)c3-c3c(C(N)=O)ccc(OC(F)F)c3F)O2)CC1 (atropisomer, axis not shown) [Example 60, 2-((2S,4S)-5-chloro-2-(((1-(2-(dimethylamino)-2-oxoethyl)piperidin-4-yl)amino)methyl)-6-fluoro-2-phenyl-2,3-dihydrobenzofuran-4-yl)-4-(difluoromethoxy)-3-fluorobenzamide]
69 nM | CS(=O)(=O)N1CCC(NC[C@@]2(c3ccccc3)Cc3c(cc(F)c(Cl)c3-c3c(C(N)=O)ccc(OC(F)F)c3F)O2)CC1 (atropisomer, axis not shown) [Example 63, 2-((2S,4S)-5-chloro-6-fluoro-2-(((1-(methylsulfonyl)piperidin-4-yl)amino)methyl)-2-phenyl-2,3-dihydrobenzofuran-4-yl)-4-(difluoromethoxy)-3-fluorobenzamide]
